From patent publication US20090105171A1, “Methods for Regenerating and Repairing Damaged Tissues Using Adrenomedullin” (priority 2005, published 2009) come the findings set out here.

Assay [1] relates to peripheral blood mononuclear cells. The experiment in a line: Dynamics of bone marrow cells after AM administration: peripheral blood mononuclear cells and Sca-1-positive cells. Type of assay: in vivo, C57BL/6 mice. The method, then:
First, to investigate whether AM has an effect on the dynamics of bone marrow cells, AM or physiological saline was administered randomly to model animals. As the model animals, 48 ten-week old female C57BL/6 mice were used. The transgenic mice (C57BL/6 background) which ubiquitously express green fluorescence protein (GFP) were kindly offered by Professor Masaru Okabe (Osaka University, Japan) (Okabe M, Ikawa M, Kominami K, Nakanishi T, Nishimune Y. ‘Green mice’ as a source of ubiquitous green cells. FEBS Lett 1997; 407: 313-319).
AM (1 μg, 2 μg, or 5 μg in 100 μl physiological saline) was randomly administrated to the C57BL/6 mice (each, n=8) by intraperitoneal injection every day for five days. The control mice were similarly administered with 100 μl physiological saline every day for five days (n=8).
Furthermore, AM or physiological saline was administered to other mice (each, n=8) with a subcutaneous osmotic mini-pump (Alzet, Palo Alto, Calif.) at a delivery rate of 0.05 μg/kg/min for five days. Blood samples were collected on day 5, and mononuclear cells were isolated using Histopaque-1083 (Sigma) by a method known to those skilled in the art (Asahara T, Takahashi T, Masuda H, Kalka C, Chen D, Iwaguro H, Inai Y, Silver M, Isner J M. VEGF contributes to postnatal neovascularization by mobilizing bone marrow-derived endothelial progenitor cells. EMBO J 1999; 18: 3964-3972). The mononuclear cells were counted manually and analyzed with respect to the expression of Sca1-FITC (Sca-1-positive cells: BD Pharmingen, San Diego, Calif.). The immunofluorescence-labeled cells were analyzed by a quantitative flow cytometry using the FACSCalibur Flow Cytometer (BD Biosciences, Mountain View, Calif.). An antibody with the same isotype (BD Pharmingen) was used as a control.

The subject of assay [2] is bone marrow-derived cells in the elastase-administered lungs. The experiment in a line: Homing and differentiation of bone marrow cells in elastase-treated GFP-positive bone marrow chimeric mice. Format: in vivo, C57BL/6 mice. The settings on record: AM group vs physiological saline group, day 28 after elastase injection. An excerpt: C57BL/6GFP-positive bone marrow chimeric mice were established for evaluating the dynamics of bone marrow cells.
The above-mentioned bone marrow chimeric mice were produced by a method known to those skilled in the art (Sata M, Saiura A, Kunisato A, Tojo A, Okada S, Tokuhisa T, Hirai H, Makuuchi M, Hirata Y, Nagai R. Hematopoietic stem cells differentiate into vascular cells that participate in the pathogenesis of atherosclerosis. Nat Med 2002; 8: 403-409). To put it briefly, a lethal dose of radiation (900 cGy) was applied to wild-type recipient C57BL/6 mice, and bone marrow cells (3×10^6 cells/300 μl) derived from the GFP mouse were transplanted through the tail vein. In order to quantify the reconstitution of mouse bone marrow, mononuclear cells and bone marrow cells in the peripheral blood were analyzed by flow cytometry four weeks after the bone marrow transplant. The percentages of the GFP-positive peripheral blood mononuclear cells and bone marrow cells in the chimeric mice were 87% to 93% and 85% to 90%, respectively, showing that the original stem cell group was replaced by the donor cell group.
Four weeks after the bone marrow transplant, swine pancreatic elastase (200 units/kg; Sigma, St. Louis, Mo.) was injected intratracheally to the chimeric mice. These mice were divided into two groups: the elastase-treated mice to be administered with physiological saline, and those to be administered with AM (each, n=5).
28 days after the injection of elastase (n=5) or saline solution (n=5), frozen sections were prepared from the lungs of the GFP-positive chimeric mice. The number of GFP-positive cells in the alveolar wall was counted and the result was indicated as the number per 100 alveoli. […] The numbers of GFP/cytokeratin double-positive cells and GFP/vWF double-positive cells were counted, and the results were indicated as the number per 100 alveoli. […]

The test system of assay [3] is elastase-induced pulmonary emphysema. The experiment in a line: Morphological and functional analyses of elastase-treated mice administered with AM. Format: in vivo, C57BL/6 mice. The settings on record: day 28. The protocol: The remaining 42 mice were used to examine whether AM improves lung structure and lung function in elastase-induced pulmonary emphysema. The mice were intratracheally injected with swine pancreatic elastase (200 units/kg) or physiological saline at random, and assigned to continuous infusion of either AM or physiological saline. Based on this protocol, the following three groups were prepared: the sham treated mice administrated with physiological saline (the sham treated group, n=14), elastase-treated mice administered with physiological saline (the physiological saline group, n=14), and elastase-treated mice administrated with AM (the AM group, n=14). Each of the above-mentioned Examples was carried out according to the guidelines of Animal Management Ethics Committee of the National Cardiovascular Center (Osaka, Japan).
In fact, in the present invention, findings about lung functions (increase in lung volume and static lung compliance) and morphological findings (increase in the average alveolar diameter) confirmed that emphysematous changes were induced in the lungs by intratracheal injection of elastase, and these findings are consistent with the results from previous studies (Hayes J A, Korthy A, Snider G L. The pathology of elastase-induced panacinar emphysema in hamsters. J Pathol 1975; 117: 1-14; Kuraki T, Ishibashi M, Takayama M, Shiraishi M, Yoshida M. A novel oral neutrophil elastase inhibitor (ONO-6818) inhibits human neutrophil elastase-induced emphysema in rats. Am J Respir Crit Care Med 2002; 166: 496-500). 28 days after the injection of elastase or physiological saline, the mice were anesthetized and their static lung compliance was measured using a computer-controlled small animal ventilator (FlexiVent; Scireq, Montreal, PQ, Canada) (n=7). Lungs were excised and then fixed for 24 hours, while the transpulmonary pressure was maintained at 25 cm H2O (n=7). The lung volume was measured by Scherle's method (Scherle W. A simple method for volumetry of organs in quantitative stereology. Mikroskopie 1970; 26: 57-60). The mean linear intercept, a morphometric parameter of pulmonary emphysema, was calculated for 20 randomly selected regions with a light microscope using a method known to those skilled in the art (Thurlbeck W M. Internal surface area and other measurements in emphysema. Thorax 1967; 22: 483-496). Morphological examination was conducted in a blind manner by three observers.
Further, paraffin sections were obtained from the lungs (n=7), and the tissue sections were stained for vWF to examine whether AM induced angiogenesis in the elastase-administered lungs. Three observers counted the number of vWF-positive blood vessels per mm^2 in a blind test manner.

Assay [4] relates to bone marrow-derived cells in ischemic cardiac muscle. The experiment in a line: Dynamic analysis of bone marrow-derived cells in a rat model of myocardial infarction. Type of assay: in vivo, GFP chimeric rats. The settings on record: acute myocardial infarction, AM 0.05 μg/kg/min subcutaneously for seven days vs control group. The method, then: Acute myocardial infarction was produced in GFP chimeric rats (rats expressing GFP in the bone marrow cells) by thoracotomy and then ligation of the anterior descending coronary artery (Fujii T. et al., Am J Physiol Heart Circ Physiol. 288(3): H1444-50, 2005).
After local ischemia is created in the heart by ligation, 0.05 μg/kg/min of AM (the AM group) or 0.9% physiological saline (the control group) was subcutaneously administered for seven days via an osmotic pressure pump.
After acute myocardial infarction was produced, the distributions of bone marrow-derived cells (confirmed by GFP expression), vascular endothelial cells (confirmed by vWF, an endothelial cell marker), and cardiac muscle cells (confirmed by desmin, a cardiac muscle cell marker) in the myocardial infarct area were confirmed. Further, the total sum of the GFP-expressing cell number, vWF-expressing cell number, and desmin-expressing cell number was examined to confirm the states of regeneration of blood vessel and cardiac muscle in the AM group and control group.

Setting [5] is: elastase-treated mice, continuous AM infusion.

In the case of adrenomedullin [AM], the “number of the peripheral blood mononuclear cells” value in assay [1] (AM 1 μg/animal, intraperitoneal injection every day for five days, day 5) is 120 % of the physiological saline group. The “number of the peripheral blood mononuclear cells” value in assay [1] (AM 5 μg/animal, intraperitoneal injection every day for five days, day 5) was 140 % of the physiological saline group. For the same substance, in assay [1] (AM 1, 2 or 5 μg intraperitoneal every day for five days, day 5), the “number of the peripheral blood mononuclear cells (dose dependence)” value is reported as “increased in a dose-dependent manner”. Also, in assay [1] (continuous AM, subcutaneous osmotic mini-pump 0.05 μg/kg/min for five days, day 5), the “number of the peripheral blood mononuclear cells” value is given as 131 % of the physiological saline group. In addition, the “frequency of Sca-1-positive cells” value in assay [1] (continuous AM, subcutaneous osmotic mini-pump 0.05 μg/kg/min for five days, day 5, flow cytometry) is recorded as 200 % of the physiological saline group. Moreover, in assay [2], the “number of GFP-positive cells incorporated in the lung (alveolar wall, per 100 alveoli)” value is on record as “significantly larger”; the “number of GFP/cytokeratin double-positive cells (per 100 alveoli)” value is “significantly larger”; the “number of GFP/vWF double-positive cells in the alveolar wall” value was “larger”. The “number of vWF-positive lung blood vessels” value in assay [3] (elastase-administered lungs, AM vs physiological saline group) is given as “significantly increased”. In addition, in assay [3] (elastase-injected mice, continuous AM infusion), the “histological changes (air space enlargement accompanied by destruction of the alveolar wall)” value is given as “decreased”. For the same substance, in assay [3] (setting [5]), the “average alveolar diameter (mean linear intercept): increase over the sham treated group” value is “reduced”, the “increase in static lung compliance” value is on record as “significantly reduced” and the “magnitude of the increase in lung volume” value is “reduced”. Further, in assay [4], the “regeneration of cardiac muscles by bone marrow-derived cells (GFP- and desmin-expressing cells)” value is “significantly enhance”; the “revascularization by bone marrow cells (GFP- and vWF-expressing cells)” value was “significantly increase”.
